US4161538A, “Substituted phenylacetic acid derivatives and process for the preparation thereof” (Sankyo Company Limited, priority 1977, dated 1979)
Where a name gives a salt, the structure may show the parent alone.

Assays:
thermally induced pain = assay: Analgesic activity, thermally induced pain method; type: in vivo, Wistar strain rat; conditions: for inhibition in vivo at 19 mg/kg: Rattus norvegicus, po, 19 mg/kg P.O.; for Inhibition(%) Analgesic 19 mg/kg (P.O.): rat
Text: [Y. Iizuka, K. Tanaka; Folia Pharmacol. Jap., 70, 697(1974)]

carrageenin edema = assay: Anti-inflammatory activity, carrageenin edema method; type: in vivo, Wistar strain rat; conditions: for inhibition in vivo at 25 mg/kg: Rattus norvegicus, po
Text: The carrageenin edema method was employed using Wistar strain rat. [C. A. Winter, E. A. Risley, G. W. Nuss; J. Pharmacol. Exp. Therap., 141, 369(1963)]

Compound | inhibition in vivo at 19 mg/kg (thermally induced pain) [%] | inhibition in vivo at 25 mg/kg (carrageenin edema; 25 mg/kg P.O.) [%] | Inhibition(%) Analgesic 19 mg/kg (P.O.) (thermally induced pain) [%] | Inhibition(%) Anti-inflammatory 25 mg/kg (P.O.) (carrageenin edema; rat, 25 mg/kg P.O.) [%] | Inhibition(%) Anti-inflammatory (100 mg/kg) (carrageenin edema; rat, 100 mg/kg (P.O.), reference medicine) [%]
O=C(O)Cc1ccc(CC2CCCC2=NO)cc1 (single isomer, unassigned) [4-(2-Hydroxyiminocyclopentan-1-ylmethyl)phenylacetic Acid] | 54.8 | 49.7 | – | – | –
CC(C(=O)O)c1ccc(CC2CCCC2=O)cc1 [2-(4-(2-Oxocyclopentan-1-ylmethyl)phenyl)-propionic acid I-a] [2-[4-(2-Oxocyclopentan-1-ylmethyl)phenyl]-propionic Acid L-Arginine Salt] | – | – | 66.7 | 69.8 | –
CC(C(=O)O)c1ccc(CC2CCCC2=O)cc1 (stereo not shown) [2-(4-(2-Oxocyclopentan-1-ylmethyl)phenyl)-propionic acid] [2-[4-(2-Oxocyclopentan-1-ylmethyl)phenyl]-propionic Acid] | – | – | 95.8 | – | –
CC(C(=O)O)c1ccc(CC2CCCCC2=NO)cc1 (stereo not shown) [2-[4-(2-Hydroxyiminocyclohexan-1-ylmethyl)phenyl]propionic Acid] | 53.1 | 78.2 | – | – | –
CC(C(=O)O)c1ccc(CC2CCCC2=NO)cc1 (stereo not shown) [2-[4-(2-Hydroxyiminocyclopentan-1-ylmethyl)phenyl]propionic Acid] | 70 | 67.4 | – | – | –
CC(C(=O)O)c1ccc(CC2CCCCC2=O)cc1 (stereo not shown) [2-[4-(2-Oxocyclohexan-1-ylmethyl)phenyl]-propionic Acid] | 63.3 | 79.9 | – | – | –
CC(C(=O)O)c1ccc(CC2CCCC2=O)cc1 (stereo not shown) [2-[4-(2-Oxocyclopentan-1-ylmethyl)phenyl]-propionic Acid] | – | 51.4 | – | – | –
O=C(O)Cc1ccc(CC2CCCCC2=O)cc1 (stereo not shown) [4-(2-Oxocyclohexan-1-ylmethyl)phenylacetic Acid] | 45.1 | 35.1 | – | – | –
O=C(O)Cc1ccc(CC2CCCC2=O)cc1 (stereo not shown) [4-(2-Oxocyclopentan-1-ylmethyl)phenylacetic Acid] | 42.5 | 65.6 | – | – | –
CCCCC1C(=O)N(c2ccccc2)N(c2ccccc2)C1=O [Phenylbutazone, reference compound] | 37 | 30.6 | – | – | 57.4
